Source: a melting point compilation (Tetko et al.; mined from patent text by program, amines drawn as free bases though some values may be those of a salt)

melting point	Compound
216 to 218 °C	CC(=O)NC[C@H]1CN(c2ccc(N3CCC(n4nnc(N5CCN(C(C)=O)CC5)n4)CC3)c(F)c2)C(=O)O1
115 to 117 °C	COc1ccc(-c2nc(Sc3ccc(C)cc3)n(Cc3ccccc3)c2-c2ccc(OC)cc2)cc1
222 to 226 °C	Cc1cc(=O)c(C(=O)Nc2ccccc2)c(-c2ccccc2)o1
174 to 175 °C	Brc1ccc(SC2CCN(C(c3ccccc3)(c3ccccc3)c3ccccc3)CC2)cc1
198 to 199 °C	COc1ccc(C2=NN(C3CCN(S(=O)(=O)c4ccc(C)cc4)CC3)C(=O)[C@H]3CC=CC[C@@H]23)cc1Cl (relative stereo)
103 to 104 °C	COc1ccc(F)cc1C(C)(C)CC(O)(Cc1nc2cc(-c3ccccc3)ccc2o1)C(F)(F)F (stereo unspecified)
88 to 90 °C	CCc1nc2cc([N+](=O)[O-])ccc2o1
94 to 95 °C	COC(=O)c1cc(OCc2ccccc2)cc(C(=O)OC)c1
52 to 55 °C	CC(C)C(S)C(=O)NC1(C(=O)NC(Cc2ccc(-c3ccoc3)nc2)C(=O)O)CCCC1 (stereo unspecified)
84 to 86 °C	CC(C)Cc1ccc(C(C)C(N)=O)cc1 (stereo unspecified)
197 to 198 °C	CC(O)c1c[nH]c(-c2ccccc2)n1 (stereo unspecified)
216 to 218 °C	O=C(/C=C/c1c(-c2ccc(F)cc2)nc2sccn12)c1ccc2ccccc2c1
169 to 170 °C	COC(=O)c1cccc(OC)c1OS(=O)(=O)NC(=O)Nc1nc(OC)cc(OC)n1
95 to 97 °C	Cc1cc(NCc2ccccc2)n(C)n1
110 to 114 °C	Cn1c(-c2ccc(-c3cccs3)cc2)cnc1[C@H](Cc1ccccn1)N(C=O)c1cc2cc(Cl)ccc2o1
202 to 205 °C	CCCN=C(N)Nc1ccnc(C(CCC)C(=N)N)n1 (stereo unspecified)
309 °C	CC(C)(C)c1c(C(=O)NC2C3CC4CC(C3)CC2C4)cnn1-c1ccc(C(=O)O)cc1 (stereo unspecified)
164 °C	Nc1nc(N)c(CCCC(CO)c2ccc(C(=O)N[C@@H](CCC(=O)O)C(=O)O)cc2)c(O)n1 (stereo partly specified)
106 °C	COc1cc(Cc2cnc(NCCSCc3nccs3)[nH]c2=O)ccn1
193 to 195 °C	CC(=O)Nc1ncnc2c1ncn2[C@@H]1C[C@H](OC(C)=O)[C@@H](O)[C@H]1O (racemic)
229 to 234 °C	O=C1COc2ccc(C3=Cc4cc(F)ccc4SC3)cc2N1
300 to 302 °C	O=C(O)c1ccc(C#Cc2ccc(OCC(O)CO)c(C34CC5CC(CC(C5)C3)C4)c2)cc1 (stereo unspecified)
198 to 199 °C	CC(CO)(CO)NCc1c2ccccc2cc2cc3ccccc3cc12

melting point	Compound
240 to 241 °C	C#Cc1cccc(Nc2ncnc3c2ccn3CCOC)c1
138 °C	OCc1c(-c2ccccc2)c(-c2ccccc2)nn1Cc1ccccc1
182 to 183 °C	O=c1ccn(CCO)c(C(O)c2cccnc2)c1OCc1ccccc1 (stereo unspecified)
180 to 182 °C	O=C(Cl)c1ccc(S(=O)(=O)NC(=O)c2ccccc2)cc1
86 to 89 °C	Cc1cnc(CCCCNc2ncc(Cc3ccc(C)nc3)c(=O)[nH]2)c(N)c1
75.5 to 77 °C	N#CCc1c(Br)csc1Br
127 to 129 °C	Cc1ccccc1C(=O)c1ccc(Nc2ccccc2NC(=O)CO)cc1Cl
111 to 113 °C	Cc1nn(-c2ccccc2)c(Nc2ccccc2)c1CC(=O)O
118 to 119 °C	Oc1c(Br)cc(-c2cccc3sc4c(Br)cccc4c23)cc1Br
104 to 105 °C	O=c1nc(-c2ccccc2)oc2ccccc12
127 to 129 °C	CCOC(=O)c1cn2c(cc(OC(C)C)c3ccccc32)n1
106 °C	CC(C)CCOc1ccc(S(=O)(=O)C2(C(=O)O)CCN(Cc3ccccc3)CC2)cc1
100 to 101 °C	O=S(=O)(Cl)c1ccc2ccc(Br)cc2c1
166 to 167 °C	COc1ccc(CC(=O)Nc2c(C)c(C)c3c(c2C)[C@@H](c2ccc(C)cc2)C(C)(C)O3)cc1
47 to 48 °C	N#CCCCCC(=O)c1ccc(Br)cc1
142 to 144 °C	CCC(=O)Nc1ccc(Cl)c(-n2nc(CC)n(Cc3ccc(-c4ccccc4S(=O)(=O)NC(=O)OC(C)(C)C)cc3F)c2=O)c1
40 to 50 °C	C=CCNCCC(OC)(c1ccccc1)c1ccccc1
164 °C	CS(=O)(=O)c1ccc(-n2cncc2-c2ccccc2)cc1
184 °C	Cc1nc2ccc(S(=O)(=O)n3c(CCCC(=O)O)cc4nc(Cl)ccc43)cc2s1
120 to 123 °C	CCCCc1nc2cccc(C(=O)O)c2n1Cc1ccc(-c2ccccc2-c2nnnn2C(c2ccccc2)(c2ccccc2)c2ccccc2)cc1
220 °C	Cc1cc(-c2cc(C(F)(F)F)n3ncc(-c4ccnc(CO)c4)c3n2)ccc1Cl
118 to 120 °C	COc1ccc(C=CC2=NNC(C)Cc3cc(OC)c(OC)cc32)c(OC)c1 (stereo unspecified)
156 to 158 °C	CC(=NO)C(C)(C)NCCN(C)NC(C)(C)C(Cn1ccnc1[N+](=O)[O-])=NO

melting point	Compound
88 °C	CCCCCCCCCCNC(=O)C1CSC(c2cccnc2)N1 (stereo unspecified)
166 to 168 °C	COC(=O)c1cc2c3cccc(Cl)c3n(C)c2s1
174 to 177 °C	O=C1CCC(C(=O)O)(c2cccc3ccccc23)CC1
164 to 166 °C	CC1CC(C)CN(S(=O)(=O)c2ccc(Cl)c(C(=O)Cl)c2)C1 (stereo unspecified)
139 to 141 °C	O=[N+]([O-])C=C1NCC(c2ccccc2)O1 (stereo unspecified)
247 to 248 °C	O=C(O)c1cn(-c2ccc(F)cc2)c2cc(N3CCC(N=Cc4ccc([N+](=O)[O-])cc4)C3)c(F)cc2c1=O (stereo unspecified)
172 °C	O=C(NCCCCCn1cnc2cnc3ccccc3c21)c1ccccc1
197 to 199 °C	CCCNC(=O)N1CCc2cc(S(=O)(=O)N3CC(c4ccccc4)NC3=O)ccc21 (stereo unspecified)
166 to 167 °C	O=C(O)CCc1cn(Cc2ccc(OCc3noc(-c4ccccc4)n3)cc2)nc1-c1ccccc1
226 °C	Cc1[nH]c(=S)n(Nc2cccc(F)c2)c1-c1ccccc1
120 °C	CCOc1ccc2c(c1)n(C1CCCCC1)c(=O)n2Cc1ccc([N+](=O)[O-])cc1OC
105 to 107 °C	CC(C)NS(=O)(=O)c1cc(Br)cc(Br)c1
218 to 221 °C	Clc1cccc(-c2nc(NC3CCCCC3)c3ccccc3n2)n1
131 °C	N#Cc1cncc(NCc2ccccc2)c1
193 to 195 °C	O=C1NC(=O)C(c2cn(CCCO)c3ccccc23)=C1c1ccccc1[N+](=O)[O-]
225 to 226 °C	CC(N)(C=CCP(=O)(O)O)C(=O)O (stereo unspecified)
257 to 258 °C	Cc1ccc2nc(C3(c4ccc(S(N)(=O)=O)cc4)C=C(C(F)(F)F)NN3)sc2c1 (stereo unspecified)
163 to 166 °C	CCOP(=O)(CC(=O)NNc1nc2ccc(C(F)(F)F)cc2n(OCc2ccccc2)c1=O)OCC
204 to 205 °C	CCOc1cc2c(=O)[nH]cnc2cc1OC(C)C
81 to 83 °C	CCCCCCCCCC(C)NC(=O)C=Cc1cccc([N+](=O)[O-])c1 (stereo unspecified)
117 °C	CCOc1ccc([N+](=O)[O-])c(NC2CCOCC2)c1
245 to 247 °C	CCOC(=O)C1=C(COCc2nnn(CCNS(C)(=O)=O)n2)NC(C)=C(C(=O)OC)C1c1cccc(Cl)c1Cl (stereo unspecified)
61 to 63 °C	O=C1OC(c2ccccc2)(c2ccccc2)CC(O)=C1CCCc1ccccc1

melting point	Compound
269 to 272 °C	Cn1c(C#N)ccc1-c1ccc2c(c1)C1(CCCCC1)C(=S)N2
108 to 109 °C	O=S(=O)(N[C@@H]1C[C@@H](/C=C\CCCCO)N(S(=O)(=O)c2ccc(Cl)cc2)C1)c1ccc(Cl)cc1
154 to 156 °C	CCOC(=O)C1(C(=O)OCC)CCC2(c3cc(OC)c(OC)cc3CCN2C(=O)CCN(C)C)C(C2c3cc(OC)c(OC)cc3CCN2C(C)=O)C1 (stereo unspecified)
188 to 189 °C	N#Cc1cc2ccccc2cc1O
134 to 136 °C	CN1CCC(=C2c3ccccc3COc3ccc(C#N)cc32)CC1
158 to 160 °C	O=C(O)COc1ccc(Cn2nnc(-c3cccc(C#CCc4ccc(F)cc4)c3)n2)cc1
153 to 154 °C	N#CC1C=Cc2ccccc2N1C(=O)c1ccccc1 (stereo unspecified)
> 297 °C	N=C(N)NCc1cc(CCC(=O)O)no1
102 to 105 °C	CC(C)CC1(C(CCN2C(=O)c3ccccc3C2=O)C(=O)NO)CCN(CCc2ccccc2)C1=O (stereo unspecified)
104 to 105 °C	C=CC1CC1(C(C)=O)C(=O)Nc1ccccc1 (stereo unspecified)
175 to 177 °C	COc1ccccc1[C@@]1(O)[C@H](O)CC(c2ccccc2)(c2ccccc2)[C@@H]2CN(C(=O)Cc3ccccc3N(C)C)C[C@@H]21 (racemic)
158 to 160 °C	Cc1cc(F)ccc1C1(c2ccc(S(C)(=O)=O)cc2C)CSC=C1c1ccc(S(C)(=O)=O)cc1 (stereo unspecified)
> 200 °C	O=C(Cc1cccnc1)Nc1cccc(-c2ccnc3c(C(=O)c4cccs4)cnn23)c1
129 to 130 °C	c1ccc2c(c1)OCCc1c-2n(Cc2ccc(OCCCN3CCCCC3)cc2)c2ccccc12
301 °C	CC(=O)Nc1nc(-c2cc(Cl)nc(Cl)c2)cs1
193 °C	CC(C)(C)CC(=O)N[C@H]1CC[C@H](CCN2CCC(c3cccc4c3CCO4)CC2)CC1
56 °C	CCOC(=O)C(C)Oc1ccc(Oc2cc3cc(Cl)ccc3nc2Cl)cc1 (stereo unspecified)
329 to 330 °C	Cn1c(C(N)=O)c(-c2ccc(F)cc2)c2cccnc2c1=O
88 °C	C=CCN1C(=S)N(c2cccc(Oc3ccccc3)c2)C(=O)C1C (stereo unspecified)
146 to 148 °C	CCOc1nc(O)cc(OC)n1
300 °C	COC(=O)Nc1nc2ccc(O)cc2[nH]1
248 to 250 °C	CN(C)c1ccc(NC(=O)Cn2c(-c3ccc(Br)cc3)nc3cccnc32)cc1

Compound	melting point
O=C(c1ccc(F)cc1)C1CC2CCN1CC2 (stereo unspecified)	68 to 69 °C
Clc1ccc(OC(c2ccc(Cl)cc2)C(Cl)(Cl)Cl)cc1 (stereo unspecified)	101 °C
O=C(NC1CN2CCC1CC2)c1cccc2oc(-c3ccc(Cl)cc3)nc12 (stereo unspecified)	194 to 196 °C
COCOCc1oc2c(OC)cccc2c1CCSC(c1ccccc1)c1ccccc1	110 °C
CCOC(=O)c1ncn2c1CN=C(c1ccccn1)c1cc(C#C[Si](C)(C)C)ccc1-2	205 to 206 °C
